Tested on: TNF-α
Test: TNF-α inhibition in lipopolysaccharide (LPS) stimulated human monocytic cells (THP-1)
Format: cell-based
Conditions: LPS (1 μg/mL) stimulated THP-1 cells, 4 hours, human TNF-α by ELISA
Source text: In addition, Tumor Necrosis Factor, TNF-α, inhibition can be measured by utilizing lipopolysaccharide (LPS) stimulated human monocytic cells (THP-1) as described in: • i) K. M. Mohler et al., “Protection Against a Lethal Dose of Endotoxin by an Inhibitor of Tumour Necrosis Factor Processing”, Nature, 370, pp 218-220 (1994). • ii) U.S. Pat. No. 6,297,381 B1 Cirillo et al., issued Oct. 2, 2001, incorporated by reference and reproduced herein below in relevant portion thereof.
The inhibition of cytokine production can be observed by measuring inhibition of TNF-α in lipopolysaccharide stimulated THP cells. All cells and reagents are diluted in RPMI 1640 with phenol red and L-glutamine, supplemented with additional L-glutamine (total: 4 mM), penicillin and streptomycin (50 units/mL each) and fetal bovine serum (FBS 3%) (GIBCO, all conc. Final). Assay is performed under sterile conditions, only test compound preparation is non-sterile. Initial stock solutions are made in DMSO followed by dilution into RPMI 1640 2-fold higher than the desired final assay concentration. Confluent THP.1 cells (2×10^7 cells/mL, final conc.; American Type Culture Company, Rockville, Md.) are added to 96 well polypropylene round bottomed culture plates (Costar 3790; sterile) containing 125 μL test compound (2-fold concentrated) or DMSO vehicle (controls, blanks). DMSO concentration should not exceed 0.2% final. Cell mixture is allowed to preincubate for 15 minutes at 37° C., 5% CO2 prior to stimulation with lipopolysaccharide (LPS, 1 μg/mL final; Sigma L-2630, from E. coli serotype 0111.B4; stored as 1 mg/mL stock in endotoxin screened diluted H2O vehicle at −80° C.). Blanks (unstimulated) receive H2O vehicle; final incubation volume is 250 μL. Incubation (4 hours) proceeds as described above. Assay is to be terminated by centrifuging plates 5 minutes at room temperature, 1600 rpm […]; supernatants are then transferred to clean 96 well plates and stored at −80° C. until analyzed for human TNF-α by a commercially available ELISA kit (Biosource #KHC3015, Camarillo, Calif.). The calculated IC50 value is the concentration of the test compound that caused a 50% decrease in the maximal TNF-α production.

Point of comparison: `COc1ccc(N(C(=O)NCc2ccccc2C)c2ccnc(N[C@@H](C)C(C)(C)O)n2)cc1` [1-(4-Methoxyphenyl)-1-{2-[(1S)-2-hydroxy-1,2-dimethyl-propylamino]-pyrimidin-4-yl}-3-(2-methylbenzyl)-urea], IC50 37 nM. Against it:
- COc1ccc(N(C(=O)NCc2ccccc2F)c2ccnc(N[C@@H](C)C(C)(C)O)n2)cc1 [1-(4-Methoxyphenyl)-1-{2-[(1S)-2-hydroxy-1,2-dimethyl-propylamino]-pyrimidin-4-yl}-3-(2-fluorobenzyl)-urea] — 2.8-fold lower, 13 nM
- CCOc1ccc(N(C(=O)NCc2ccccc2Cl)c2ccnc(N[C@@H](C)COC)n2)cc1 [1-(4-Ethoxyphenyl)-1-{2-[(1S)-2-methoxy-1-methyl-ethylamino]-pyrimidin-4-yl}-3-(2-chlorobenzyl)-urea] — 1.5-fold higher, 56 nM
- C[C@H](Nc1nccc(N(C(=O)NCc2ccccc2Cl)c2ccc(F)cc2)n1)C(C)(C)O [1-(4-Fluorophenyl)-1-{2-[(1S)-2-hydroxy-1,2-dimethyl-propylamino]-pyrimidin-4-yl}-3-(2-chlorobenzyl)-urea] — 2.6-fold lower, 14 nM
- O=C(NCc1ccccc1Cl)N(c1ccc(F)cc1)c1ccnc(NC2CCOCC2)n1 [1-(4-Fluorophenyl)-1-[2-(tetrahydropyran-4-ylamino)-pyrimidin-4-yl]-3-(2-chlorobenzyl)-urea] — 2.3-fold lower, 16 nM
- COc1ccc(N(C(=O)NCc2ccccc2Cl)c2ccnc(N[C@@H](C)C(C)(C)O)n2)cc1 [1-(4-Methoxyphenyl)-1-{2-[(1S)-2-hydroxy-1,2-dimethyl-propylamino]-pyrimidin-4-yl}-3-(2-chlorobenzyl)-urea] — 4.1-fold lower, 9 nM
- COc1ccc(N(C(=O)NCc2ccccc2OC)c2ccnc(N[C@@H](C)C(C)(C)O)n2)cc1 [1-(4-Methoxyphenyl)-1-{2-[(1S)-2-hydroxy-1,2-dimethyl-propylamino]-pyrimidin-4-yl}-3-(2-methoxybenzyl)-urea] — 2.5-fold lower, 15 nM

Reference: patent US7402589B2, “Tri-substituted ureas as cytokine inhibitors” (The Procter & Gamble Company, priority 2004, dated 2008)
